Reference: US20040157821A1, “Sulfate of cephem compound” (priority 2001, published 2004)
Structures can show the parent of a compound that is named as a salt.

How the values were obtained:
[1] = acceleration stability test at 40° C. of crystals filled into vials (residue rate, appearance); format: physicochemical; details: for appearance (of powder) / residue rate (%): 40° C., vial
Description: (§1) The crystals obtained in the above examples were filled into vials and the residue rate thereof was examined through the acceleration stability test at 40° C. Further, the turbidity of an aqueous solution containing the crystal was determined.
(§2) The monosulfate crystal of compound (I) obtained in Example 9 was filled into vials and the residue rate thereof was examined through the acceleration stability test at 40° C. Further, the turbidity was determined.
As a reference compound, used was a lyophilization product of monohydrochloride of compound (I) (non-crystal, KF value: 1.7%, 0.6 H2O) obtained according to the method of Example 6-2 of WO 00/32606.
(§3) The crystals obtained in Example 10 were filled into vials and the residue rate thereof was examined through the acceleration stability test at 40° C. Further, the turbidity of solutions was determined.

[2] = turbidity / appearance of an aqueous solution containing the crystal; format: physicochemical; details: for turbidity Abs(600 nm): aqueous solution, absorbance 600 nm
Description: as §1, §2, §3

In the case of `CCO/N=C(\C(=O)N[C@@H]1C(=O)N2C(C(=O)[O-])=C(C[n+]3cccc4c3NCN4CCCNC)CS[C@H]12)c1nsc(N)n1` [Example 6(1)], the “appearance (of powder)” value ([1]; 1 month) is reported as “white”, the “residue rate (%)” value ([1]; 1 month) is reported as 99.6% and the “appearance (of powder)” value ([1]; initial) is reported as “white”. The “residue rate (%)” value ([1]; initial) was 100.0%, the “turbidity Abs(600 nm)” value ([2]; after 1 month at 40° C.) was 0.011 and the “turbidity Abs(600 nm)” value ([2]; initial) was 0.000.
With `CCO/N=C(\C(=O)N[C@@H]1C(=O)N2C(C(=O)[O-])=C(C[n+]3cccc4c3NCN4CCCNC)CS[C@H]12)c1nsc(N)n1` [Example 6(2)] the “appearance (of powder)” value ([1]; 1 month) was “white”, the “residue rate (%)” value ([1]; 1 month) was 99.0% and the “appearance (of powder)” value ([1]; initial) was “white”. For the same molecule, the “residue rate (%)” value ([1]; initial) was 100.0%, the “turbidity Abs(600 nm)” value ([2]; after 1 month at 40° C.) was 0.007 and the “turbidity Abs(600 nm)” value ([2]; initial) was 0.006.
For `CCO/N=C(\C(=O)N[C@@H]1C(=O)N2C(C(=O)[O-])=C(C[n+]3cccc4c3NCN4CCCNC)CS[C@H]12)c1nsc(N)n1` [Example 10], the “residue rate (%)” value ([1]; 1 month) was 98.5%, the “appearance (of powder)” value ([1]; initial) was “white powder” and the “residue rate (%)” value ([1]; initial) was 100.0%. The “stability (in words)” value ([1]; acceleration stability test at 40° C.) was “high stability for a long period”, the “turbidity upon being dissolved into water (in words)” value ([2]; after storage at 40° C.) was “turbidity was hardly observed” and the “turbidity Abs(600 nm)” value ([2]; after 1 month at 40° C.) was 0.002. For the same molecule, the “turbidity Abs(600 nm)” value ([2]; initial) was 0.002.
With `CCO/N=C(\C(=O)N[C@@H]1C(=O)N2C(C(=O)[O-])=C(C[n+]3cccc4c3ncn4CCCNC)CS[C@H]12)c1nsc(N)n1` [hydrochloride, reference compound] the “appearance (of powder)” value ([1]; 1 month) was “pale”, the “residue rate (%)” value ([1]; 1 month) was 94.8% and the “appearance (of powder)” value ([1]; 2 month) was “pale”. For the same molecule, the “residue rate (%)” value ([1]; 2 month) was 92.9%, the “appearance (of powder)” value ([1]; initial) was “pale” and the “residue rate (%)” value ([1]; initial) was 100.0%. The appearance of solution ([2]; after 1 month at 40° C.) was “Yellow”, the appearance of solution ([2]; after 2 month at 40° C.) was “Yellow” and the “turbidity Abs(600 nm)” value ([2]; after 1 month at 40° C.) was 0.565. The “turbidity Abs(600 nm)” value ([2]; after 2 month at 40° C.) was 1.338, the “turbidity Abs(600 nm)” value ([2]; initial) was 0.001 and the appearance of solution ([2]; initial) was “pale”.
